The experiment is described as follows: In vitro binding affinity against Alpha-1A adrenergic receptor in isolated prostate tissue of dog.

As a reminder, the pKi is the negative decadic logarithm of the Ki, by convention in mol/L.

Structures are written as SMILES. pKi: −log10 of the molar value.

`CCC1=C(C(N)=O)C(c2ccc(F)c(F)c2)N(C(=O)NCCCN2CCC(C(=O)OC)(c3ccccc3)CC2)C(=O)N1` (stereo unspecified) [1-(3-{[5-Carbamoyl-6-(3,4-difluoro-phenyl)-4-ethyl-2-oxo-3,6-dihydro-2H-pyrimidine-1-carbonyl]-amino}-propyl)-4-phenyl-piperidine-4-carboxylic acid methyl ester] showed a pKi of 8.89.

The values are drawn from BindingDB's records for doi:10.1021/jm990200p (Synaptic Pharmaceutical, 1999).
